Experiment: Body weight evolution of treated mice
Type: in vivo
Description: The mice enrolled were FVB-Tg(Sod1*G86R)M1Jwg/J mice from JAX laboratories. Animals were group-housed (10 per cage) in a temperature-controlled room (22±2° C.) with a 12/12-hour light/dark cycle. Food and water were feed ad-libitum. […] Breeding was realized (since 2013 may) in SOPF facility and genotyping is performed by qPCR (from tail biopsy). Animal are identified with earrings.
Mice were handled and weighted at the age of 60 days. Canula implantation in intra cerebro-ventricular (ICV) by stereotaxie start at this date and mice are acclimated during 1 week.
(Gurney and al, Neurology, 1998). Then they were evaluated, twice a week (i.e. body weight and neuroscore), from the age of 67 days to their death.
Two different treatments are performed from 75 days to death: • HT_pHPL prepared as described in example 1 and at 1 g/L, pH 7.4 versus vehicle. The dose of HT_pHPL administrated by intermittent ICV was 4 μL, three times a week at rate of 0.5 μL/min. […]

For `Nc1nc2ccc(OC(F)(F)F)cc2s1` [Riluzole], the “day of body weight decrease” value (Tg mice FVB-Tg(Sod1*G86R)) was 88 days and the “effect on body weight evolution” value (WT mice) was “no effect”.

Source: patent US11744863B2, “Process for preparing a pooled human platelet lysate, pooled human platelet lysate and its use for treating neurological disorders” (priority 2017, dated 2023)
